The source of these data is patent US20200390767A1, “Formulations of 4-(7-Hydroxy-2-isopropyl-4-oxo-4H-quinazolin-3-yl)-benzonitrile” (NOVARTIS AG, priority 2019, published 2020).

This assay has as its system corneal sensitivity. In words: First in human study, esthesiometry assessment (Part 3). The class given is in vivo. The settings on record: single eye drop; for anesthetic effect on the cornea: healthy subjects. From the text: Part 3 was an esthesiometry assessment to evaluate the anesthetic properties of compound I. Part 3 of the study had four arms, with compound I, vehicle, tetracaine (0.5% ophthalmic solution, used as a positive control) and diclofenac sodium (0.1% ophthalmic solution, used as the active NSAID comparator). Ocular anesthetic was selected because of its established anesthetic effect; however it is not the standard of care due to its negative effect on wound healing. NSAID is the current standard of care for corneal pain after PRK with minimal anesthetic but significant pain control properties. Vehicle eye drops were used as a negative control to enable better determination of the potential anesthetic effect. Twelve healthy subjects, who met the eligibility criteria, were randomized to receive a single eye drop of 4 study treatments, each during 1 of 4 different study days (Days 1, 4, 7 and 10). Each subject was randomized to receive the study treatment according to one of the following four sequences: • Sequence 1: Anesthetic, NSAID, compound I 2.5%, Vehicle • Sequence 2: NSAID, Vehicle, Anesthetic, compound I 2.5% • Sequence 3: Vehicle, compound I 2.5%, NSAID, Anesthetic • Sequence 4: compound I 2.5%, Anesthetic, Vehicle, NSAID
The first-in-human study further evaluated potential anesthetic effect of topical ocular 2.5% compound I by esthesiometry testing, i.e. measurement of the filament length (cm) when the threshold of cornea touch is perceived.

On to `O=C(O)Cc1ccccc1Nc1c(Cl)cccc1Cl` [diclofenac 0.1%, diclofenac sodium], for which the “anesthetic effect on the cornea” value is recorded as “no anesthetic effect”.

In the case of `CCCCNc1ccc(C(=O)OCCN(C)C)cc1` [tetracaine 0.5%, tetracaine], the “duration of action of anesthetic effect” value is listed as “approximately 10 minutes” and the “anesthetic effect on the cornea” value was “had an anesthetic effect”.
